Measured values reported in the OligoGym collection.
HELM strings list units from the 5' end as sugar, base in round brackets, then linkage (d deoxyribose, r ribose, m 2'-O-methyl, p phosphodiester). Strings are as the collection lists them; they lack the last nucleoside at the 3' end of the tested compound. [moe] = 2'-O-(2-methoxyethyl) (MOE); [sp] = phosphorothioate linkage; [m5C] = 5-methylcytosine

Target: GFAP
Assay: mouse, dose not given
Settings: ASO

| Substance | 3 h FOB score [score 0-7] |
| --- | --- |
| RNA1{[moe](G)[sp].[moe](T)p.[moe]([m5C])p.[moe](A)p.[moe](G)[sp].d([m5C])[sp].d([m5C])[sp].d(T)[sp].d(G)[sp].d(G)[sp].d(T)[sp].d(T)[sp].d(A)[sp].d(G)[sp].d([m5C])[sp].[moe]([m5C])p.[moe](T)p.[moe](T)[sp].[moe](T)}$$$$ (last 3' nucleoside missing) | 6 |
| RNA1{[moe](G)[sp].[moe](T)p.[moe]([m5C])p.[moe](A)p.[moe](G)p.[moe]([m5C])p.d([m5C])[sp].d(T)[sp].d(G)[sp].d(G)[sp].d(T)[sp].d(T)[sp].d(A)[sp].d(G)[sp].d([m5C])[sp].d([m5C])[sp].[moe](T)p.[moe](T)[sp].[moe](T)}$$$$ (last 3' nucleoside missing) | 4 |
| RNA1{[moe](G)[sp].[moe](T)p.[moe]([m5C])p.[moe](A)p.[moe](G)p.d([m5C])[sp].d([m5C])[sp].d(T)[sp].d(G)[sp].d(G)[sp].d(T)[sp].d(T)[sp].d(A)[sp].d(G)[sp].d([m5C])[sp].[moe]([m5C])p.[moe](T)p.[moe](T)[sp].[moe](T)}$$$$ (last 3' nucleoside missing) | 5 |
| RNA1{[moe](G)[sp].[moe](T)p.[moe]([m5C])p.[moe](A)p.[moe]([m5C])[sp].d(A)[sp].d(T)[sp].d(T)[sp].d([m5C])[sp].d(A)[sp].d([m5C])[sp].d(T)[sp].d(A)[sp].[moe](A)p.[moe](T)p.[moe](A)[sp].[moe](T)}$$$$ (last 3' nucleoside missing) | 0 |
| RNA1{[moe](G)[sp].[moe](T)p.[moe]([m5C])p.[moe](A)p.[moe]([m5C])[sp].d(A)[sp].d(T)[sp].d(T)[sp].d([m5C])[sp].d(A)[sp].d([m5C])[sp].d(T)[sp].d(A)[sp].d(A)[sp].d(T)[sp].[moe](A)p.[moe](T)p.[moe](T)[sp].[moe](T)}$$$$ (last 3' nucleoside missing) | 0 |
| RNA1{[moe](G)[sp].[moe](T)p.[moe]([m5C])p.[moe](A)p.[moe]([m5C])p.[moe](A)p.d(T)[sp].d(T)[sp].d([m5C])[sp].d(A)[sp].d([m5C])[sp].d(T)[sp].d(A)[sp].d(A)[sp].d(T)[sp].d(A)[sp].[moe](T)p.[moe](T)[sp].[moe](T)}$$$$ (last 3' nucleoside missing) | 0 |
| RNA1{[moe](G)[sp].[moe](T)p.[moe]([m5C])p.[moe](A)p.[moe]([m5C])p.d(A)[sp].d(T)[sp].d(T)[sp].d([m5C])[sp].d(A)[sp].d([m5C])[sp].d(T)[sp].d(A)[sp].d(A)[sp].d(T)[sp].[moe](A)p.[moe](T)p.[moe](T)[sp].[moe](T)}$$$$ (last 3' nucleoside missing) | 0 |
| RNA1{[moe](G)[sp].[moe](T)p.[moe]([m5C])p.[moe](A)p.d([m5C])[sp].d(A)[sp].d(T)[sp].d(T)[sp].d([m5C])[sp].d(A)[sp].d([m5C])[sp].d(T)[sp].d(A)[sp].d(A)[sp].[moe](T)p.[moe](A)p.[moe](T)p.[moe](T)[sp].[moe](T)}$$$$ (last 3' nucleoside missing) | 0 |
| RNA1{[moe](G)[sp].[moe](T)p.[moe]([m5C])p.[moe](T)p.[moe](G)[sp].d(A)[sp].d(G)[sp].d(T)[sp].d([m5C])[sp].d(T)[sp].d([m5C])[sp].d(A)[sp].d(G)[sp].d(T)[sp].d(T)[sp].[moe](T)p.[moe](T)p.[moe]([m5C])[sp].[moe]([m5C])}$$$$ (last 3' nucleoside missing) | 7 |
| RNA1{[moe](G)[sp].[moe](T)p.[moe]([m5C])p.[moe](T)p.[moe](T)[sp].d(T)[sp].d(A)[sp].d(T)[sp].d(T)[sp].d(T)[sp].d(T)[sp].d(T)[sp].d([m5C])[sp].[moe]([m5C])p.[moe](T)p.[moe]([m5C])[sp].[moe](A)}$$$$ (last 3' nucleoside missing) | 4 |
| RNA1{[moe](G)[sp].[moe](T)p.[moe]([m5C])p.[moe](T)p.[moe](T)[sp].d(T)[sp].d(A)[sp].d(T)[sp].d(T)[sp].d(T)[sp].d(T)[sp].d(T)[sp].d([m5C])[sp].d([m5C])[sp].d(T)[sp].[moe]([m5C])p.[moe](A)p.[moe](G)[sp].[moe]([m5C])}$$$$ (last 3' nucleoside missing) | 5 |
| RNA1{[moe](G)[sp].[moe](T)p.[moe]([m5C])p.[moe](T)p.[moe]([m5C])[sp].d(A)[sp].d(G)[sp].d(T)[sp].d(T)[sp].d(T)[sp].d(T)[sp].d([m5C])[sp].d([m5C])[sp].d(T)[sp].d([m5C])[sp].[moe]([m5C])p.[moe](A)p.[moe](G)[sp].[moe]([m5C])}$$$$ (last 3' nucleoside missing) | 0 |
| RNA1{[moe](G)[sp].[moe](T)p.[moe]([m5C])p.[moe](T)p.d(T)[sp].d(T)[sp].d(A)[sp].d(T)[sp].d(T)[sp].d(T)[sp].d(T)[sp].d(T)[sp].d([m5C])[sp].d([m5C])[sp].[moe](T)p.[moe]([m5C])p.[moe](A)p.[moe](G)[sp].[moe]([m5C])}$$$$ (last 3' nucleoside missing) | 3 |
| RNA1{[moe](G)[sp].[moe]([m5C])p.[moe](A)p.[moe](A)p.[moe]([m5C])[sp].d(A)[sp].d(G)[sp].d(T)[sp].d(T)[sp].d(T)[sp].d([m5C])[sp].d([m5C])[sp].d(A)[sp].d(T)[sp].d(A)[sp].[moe](A)p.[moe]([m5C])p.[moe](A)[sp].[moe](A)}$$$$ (last 3' nucleoside missing) | 0 |
| RNA1{[moe](G)[sp].[moe]([m5C])p.[moe](A)p.[moe](G)p.[moe](T)[sp].d(A)[sp].d(T)[sp].d(T)[sp].d(A)[sp].d([m5C])[sp].d([m5C])[sp].d(T)[sp].d([m5C])[sp].[moe](T)p.[moe](A)p.[moe]([m5C])[sp].[moe](T)}$$$$ (last 3' nucleoside missing) | 1 |
| RNA1{[moe](G)[sp].[moe]([m5C])p.[moe](A)p.[moe](G)p.[moe](T)p.[moe](A)p.d(T)[sp].d(T)[sp].d(A)[sp].d([m5C])[sp].d([m5C])[sp].d(T)[sp].d([m5C])[sp].d(T)[sp].d(A)[sp].d([m5C])[sp].[moe](T)p.[moe](A)[sp].[moe](G)}$$$$ (last 3' nucleoside missing) | 0 |
| RNA1{[moe](G)[sp].[moe]([m5C])p.[moe](A)p.[moe](G)p.[moe]([m5C])[sp].d(A)[sp].d(T)[sp].d(T)[sp].d(T)[sp].d(G)[sp].d(T)[sp].d([m5C])[sp].d(T)[sp].d(T)[sp].d(T)[sp].[moe](A)p.[moe](T)p.[moe](T)[sp].[moe](T)}$$$$ (last 3' nucleoside missing) | 4 |
| RNA1{[moe](G)[sp].[moe]([m5C])p.[moe](A)p.[moe](G)p.d(T)[sp].d(A)[sp].d(T)[sp].d(T)[sp].d(A)[sp].d([m5C])[sp].d([m5C])[sp].d(T)[sp].d([m5C])[sp].d(T)[sp].[moe](A)p.[moe]([m5C])p.[moe](T)p.[moe](A)[sp].[moe](G)}$$$$ (last 3' nucleoside missing) | 1 |
| RNA1{[moe](G)[sp].[moe]([m5C])p.[moe](A)p.[moe](T)p.[moe](T)[sp].d(T)[sp].d(G)[sp].d(T)[sp].d([m5C])[sp].d(T)[sp].d(T)[sp].d(T)[sp].d(A)[sp].[moe](T)p.[moe](T)p.[moe](T)[sp].[moe](T)}$$$$ (last 3' nucleoside missing) | 1 |
| RNA1{[moe](G)[sp].[moe]([m5C])p.[moe](A)p.[moe](T)p.[moe](T)[sp].d(T)[sp].d(G)[sp].d(T)[sp].d([m5C])[sp].d(T)[sp].d(T)[sp].d(T)[sp].d(A)[sp].d(T)[sp].d(T)[sp].[moe](T)p.[moe](T)p.[moe](T)[sp].[moe]([m5C])}$$$$ (last 3' nucleoside missing) | 0 |
| RNA1{[moe](G)[sp].[moe]([m5C])p.[moe](A)p.[moe](T)p.[moe](T)p.[moe](T)p.d(G)[sp].d(T)[sp].d([m5C])[sp].d(T)[sp].d(T)[sp].d(T)[sp].d(A)[sp].d(T)[sp].d(T)[sp].d(T)[sp].[moe](T)p.[moe](T)[sp].[moe]([m5C])}$$$$ (last 3' nucleoside missing) | 1 |
| RNA1{[moe](G)[sp].[moe]([m5C])p.[moe](A)p.[moe]([m5C])p.[moe](A)[sp].d(G)[sp].d(T)[sp].d(T)[sp].d([m5C])[sp].d([m5C])[sp].d([m5C])[sp].d(A)[sp].d(G)[sp].d(A)[sp].d(T)[sp].[moe](A)p.[moe]([m5C])p.[moe](T)[sp].[moe]([m5C])}$$$$ (last 3' nucleoside missing) | 0 |
| RNA1{[moe](G)[sp].[moe]([m5C])p.[moe](A)p.[moe]([m5C])p.[moe](A)p.[moe](G)p.d(T)[sp].d(T)[sp].d([m5C])[sp].d([m5C])[sp].d([m5C])[sp].d(A)[sp].d(G)[sp].d(A)[sp].d(T)[sp].d(A)[sp].[moe]([m5C])p.[moe](T)[sp].[moe]([m5C])}$$$$ (last 3' nucleoside missing) | 0 |
| RNA1{[moe](G)[sp].[moe]([m5C])p.[moe](G)p.[moe](A)p.[moe](G)[sp].d([m5C])[sp].d(G)[sp].d(G)[sp].d(A)[sp].d(G)[sp].d(G)[sp].d([m5C])[sp].d([m5C])[sp].d(T)[sp].d(G)[sp].[moe](G)p.[moe](G)p.[moe](T)[sp].[moe](G)}$$$$ (last 3' nucleoside missing) | 6 |
| RNA1{[moe](G)[sp].[moe]([m5C])p.[moe](G)p.[moe](A)p.[moe](T)[sp].d(G)[sp].d(G)[sp].d(A)[sp].d(G)[sp].d([m5C])[sp].d([m5C])[sp].d(T)[sp].d([m5C])[sp].d(A)[sp].d(G)[sp].[moe](G)p.[moe](G)p.[moe](A)[sp].[moe](T)}$$$$ (last 3' nucleoside missing) | 7 |
| RNA1{[moe](G)[sp].[moe]([m5C])p.[moe](T)p.[moe](T)p.[moe](T)[sp].d(T)[sp].d(G)[sp].d(A)[sp].d(G)[sp].d(A)[sp].d(T)[sp].d(A)[sp].d(T)[sp].[moe]([m5C])p.[moe](T)p.[moe](T)[sp].[moe](G)}$$$$ (last 3' nucleoside missing) | 3 |
